We go through two compounds from ChEMBL document CHEMBL3769362, “Thermodynamic profiling of inhibitors of Nrf2:Keap1 interactions” (Bioorg Med Chem Lett, 2016).

Active and inactive are the calls of the source. The calls are words filed in the database; no cut-off is given here.

For experiment [1], the target named is T1, Keap1/Nrf2 (Homo sapiens) (UniProt Q16236+Q14145). Description: Inhibition of Nrf2:Keap1 interaction (unknown origin) assessed as thermodynamic enthalpy changes by MR121 dye-labeled Nrf2-derived peptide based tracer displacement assay. It counts as protein assay.
Experiment [2] deals with T1, Keap1/Nrf2 (Homo sapiens). Description: Inhibition of Nrf2:Keap1 interaction (unknown origin) assessed as induction of negative TdeltaS values by MR121 dye-labeled Nrf2-derived peptide based tracer displacement assay. Format: protein assay.

T1 sequence (Q14145 whole entry, looked up): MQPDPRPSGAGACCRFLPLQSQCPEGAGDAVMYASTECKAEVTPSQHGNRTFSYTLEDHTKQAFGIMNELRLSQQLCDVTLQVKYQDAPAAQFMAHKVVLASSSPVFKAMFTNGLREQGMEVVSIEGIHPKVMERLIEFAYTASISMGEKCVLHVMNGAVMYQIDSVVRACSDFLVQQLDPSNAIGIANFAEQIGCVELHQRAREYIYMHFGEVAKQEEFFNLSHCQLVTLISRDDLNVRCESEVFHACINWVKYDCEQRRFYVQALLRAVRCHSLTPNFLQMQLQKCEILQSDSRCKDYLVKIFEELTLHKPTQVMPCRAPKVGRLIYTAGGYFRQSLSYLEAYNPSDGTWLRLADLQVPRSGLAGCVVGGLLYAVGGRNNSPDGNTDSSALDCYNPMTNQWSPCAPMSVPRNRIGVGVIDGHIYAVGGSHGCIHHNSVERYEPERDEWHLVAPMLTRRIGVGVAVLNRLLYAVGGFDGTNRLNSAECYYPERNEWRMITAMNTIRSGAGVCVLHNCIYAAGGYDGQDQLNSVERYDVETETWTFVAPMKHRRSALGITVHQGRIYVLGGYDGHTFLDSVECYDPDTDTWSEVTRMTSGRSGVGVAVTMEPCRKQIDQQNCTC
T1 sequence (Q16236 whole entry, looked up): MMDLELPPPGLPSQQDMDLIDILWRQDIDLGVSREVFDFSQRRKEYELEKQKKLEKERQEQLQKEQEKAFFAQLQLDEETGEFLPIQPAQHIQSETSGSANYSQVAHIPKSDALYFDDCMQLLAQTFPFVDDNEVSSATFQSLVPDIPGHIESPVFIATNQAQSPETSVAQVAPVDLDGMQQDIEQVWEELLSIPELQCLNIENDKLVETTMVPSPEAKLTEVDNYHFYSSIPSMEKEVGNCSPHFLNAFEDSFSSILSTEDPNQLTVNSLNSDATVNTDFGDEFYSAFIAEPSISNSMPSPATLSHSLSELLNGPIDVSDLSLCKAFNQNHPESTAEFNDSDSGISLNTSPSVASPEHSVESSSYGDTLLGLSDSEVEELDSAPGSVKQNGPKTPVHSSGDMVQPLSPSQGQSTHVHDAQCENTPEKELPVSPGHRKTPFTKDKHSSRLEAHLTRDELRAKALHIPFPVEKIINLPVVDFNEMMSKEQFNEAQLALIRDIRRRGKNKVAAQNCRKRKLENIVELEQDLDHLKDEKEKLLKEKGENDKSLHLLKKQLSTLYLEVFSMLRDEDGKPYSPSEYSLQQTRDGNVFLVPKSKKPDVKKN

On to `Cc1ccc(S(=O)(=O)C2CN=C(SCC(=O)Nc3ccccc3C(F)(F)F)NC2=O)c(C)c1` (centres undefined), for which the deltaG in experiment [1] is -24.8 kJ/mol. For the same compound, the result in experiment [2] was Active.
As to `COc1ccc(S(=O)(=O)Nc2ccc(NS(=O)(=O)c3ccc(OC)cc3)c3ccccc23)cc1`, the deltaG in experiment [1] was -32.8 kJ/mol. Also, in experiment [2], the outcome was Active.
